Results as given in patent US5968987A, “Halofantrine free base for the treatment of malaria and compositions” (priority 1994, dated 1999).
Where a name gives a salt, the structure may show the parent alone. Values belong to the compound of their own block, whether it stands above or below them.

Experiments:
[1] = physchem; type: physicochemical
Description: The following data and examples serve to illustrate the invention.

[2] = in words, background; cited from earlier work
[3] = in words, background; cited from earlier work; remark: listed apart in the source
[4] = test system: malarial infections; details: in words, background; cited from earlier work

solubility ([1]; peanut oil, organic solvent or mixture, miscible/soluble with peanut oil): > 400 mg/mL
SMILES: CCCCN(CCCC)CCC(O)c1cc2c(Cl)cc(Cl)cc2c2cc(C(F)(F)F)ccc12 (centres unmarked) [amorphous halofantrine free base]

solubility ([1]; triglycerides, organic solvent or mixture, solubility in triglycerides): > 80 mg/mL
SMILES: CCCCN(CCCC)CCC(O)c1cc2c(Cl)cc(Cl)cc2c2cc(C(F)(F)F)ccc12 (centres unmarked) [crystalline halofantrine free base]

lipid solubility and miscibility [1]: unexpectedly high
SMILES: CCCCN(CCCC)CCC(O)c1cc2c(Cl)cc(Cl)cc2c2cc(C(F)(F)F)ccc12 (centres unmarked) [halofantrine free base]

solubility ([1]; aqueous solutions, solubility in aqueous solutions): ~0.001 mg/mL | solubility ([1]; peanut oil, organic solvent or mixture, solubility in a triglyceride lipid such as peanut oil): < 1 mg/mL
SMILES: CCCCN(CCCC)CCC(O)c1cc2c(Cl)cc(Cl)cc2c2cc(C(F)(F)F)ccc12 (centres unmarked) [halofantrine hydrochloride]
aqueous and lipid solubility [2]: poor | absorption after oral administration [3]: poor and often variable | effectiveness in the treatment of malarial infections [4]: very effective
